Experiment [1] has as its system Glycine max. Description: Number of nodules in soybean plants inoculated with Bradirhizobium japonicum and watered with miPEP. The format is in vivo. As to conditions: watering with 0.1 μM miPEP vs solvent (FIGS. 2, 9) or control peptide (FIG. 5). The protocol: (§1) After sterilisation of the grains for 3 min in bleach diluted ¼, then rinsing with sterile water, the grains are incubated for 2 hours in water. Lastly, the grains are placed in a petri dish with damp paper towels at 28° C. Once sprouted, the grains are placed in a small pot containing oil dry® medium under a glass cover. After a few days' growth, the plants of which the development is uniform are selected for the experiment and transferred into a larger pot.
(§2) The bacteria are placed in culture in Campbel liquid medium (K2PO4:0.5 g/l, MgSO4 7H2O: 0.2 g/l, NaCl: 0.1 g/l, mannitol: 10 g/l, yeast extract: 2.5 g/l, Casamino acid: 0.5 g/l) (5 ml) at 28° C., then transferred to an Erlenmeyer flask containing 100 ml of Campbel medium. After a few days of culture, when the DO is 0.3 at 595 nm, the 100 ml of culture of B. japonicum were centrifuged for 30 min at 4000 rpm. The supernatant was discarded and the pellet resuspended in “caisson” culture medium (Lullien et al., Plant gene expression in effective and ineffective root nodules of alfalfa (Medicago sativa). Plant Mol Biol 9: 469-478, 1987) to achieve a DO of 0.05 at 595 nm. Each plant is inoculated with 20 ml of this solution. The plants are regularly watered with the “caisson” medium.
(§3) The treatment is performed by watering plants with the concentrated solution of miPEP or the equivalent of solvent solution for the control treatment. […]

A further experiment relates to Hb2. Description: Expression of the gene Hb2 in roots of watered soybean plants (qRT-PCR). Conditions: plants watered with miPEP172c at 0,01 μM vs control peptide at 0.01 μM (FIG. 6). In kind it is in vivo, Glycine max. On the procedure: (§4) Each experiment was repeated from two to three times.
(§5) The plants are regularly watered with the “caisson” medium.
(§6) The treatments are performed every two days.

For experiment [2], the system named is Glycine max. Description: Fresh pod weight of soybean plants watered with miPEP. In kind it is in vivo. As to conditions: watering with 0.1 μM miPEP172c vs solvent (FIG. 4). On the procedure:
as §1, §2, §3

The subject of the next experiment is ENOD40-1. Description: Expression of the gene ENOD40-1 in roots of watered soybean plants (qRT-PCR). The format is in vivo, Glycine max. Conditions: plants watered with miPEP172c at 0,01 μM vs control peptide at 0.01 μM (FIG. 6). The protocol: as §4, §5, §6
The test system of a further experiment is NIN. Description: Expression of the gene NIN in roots of watered soybean plants (qRT-PCR). In kind it is in vivo, Glycine max. As to conditions: plants watered with miPEP172c at 0,01 μM vs control peptide at 0.01 μM (FIG. 6). On the procedure: as §4, §5, §6
In another experiment the test system is NNC1. Description: Expression of the gene NNC1 in roots of watered soybean plants (qRT-PCR). Conditions: plants watered with miPEP172c at 0,01 μM vs control peptide at 0.01 μM (FIG. 6). In kind it is in vivo, Glycine max. On the procedure:
as §4, §5, §6

The subject of a further experiment is nifD. Put plainly: Expression of nifD revealed by nifD-LacZ fusions in nodules. The format is in vivo, Glycine max. Conditions: nodules of plants treated with miPEP172c vs control peptide (FIGS. 6 and 8). On the procedure: as §1, §2, §3
For the next experiment, the system named is miR172c. Put plainly: Measurement of the expression of miR172c in roots of watered soybean plants (qRT-PCR). In kind it is in vivo, Glycine max. As to conditions: plants watered with miPEP172c at 0.1 μM vs control (FIG. 1) or 0.01 μM vs control peptide (FIG. 6). The protocol:
as §4, §5, §6

Another experiment deals with nifH. Description: Expression of the gene nifH in roots of watered soybean plants (qRT-PCR). In kind it is in vivo, Glycine max. As to conditions: plants watered with miPEP172c at 0,01 μM vs control peptide at 0.01 μM (FIG. 6). On the procedure:
as §4, §5, §6

In experiment [3] the test system is Glycine max. Put plainly: Root mass (fresh root weight) of soybean plants watered with miPEP. In kind it is in vivo. Conditions: watering with miPEP172c vs control peptide at 0.01 μM (FIG. 7). The protocol:
as §1, §2, §3

Another experiment has as its system NSP1. As to conditions: plants watered with miPEP172c at 0,01 μM vs control peptide at 0.01 μM (FIG. 6). The protocol: as §1, §2, §3
Experiment [4] concerns Glycine max. Put plainly: Nitrogen concentration in the aerial parts of soybean plants watered with miPEP. As to conditions: watering with 0.1 μM miPEP172c vs solvent (FIG. 3). In kind it is in vivo. On the procedure:
The “nitrogen content” corresponds to the concentration of nitrogen in the plant or in part of the plant. For example, it can be the concentration of nitrogen in the aerial parts in g of nitrogen per kg of dry leaf weight. This concentration of nitrogen can be determined by techniques known to a person skilled in the art. For example, one method consists of burning a sample of known mass at an elevated temperature (approximately 900° C.) in the presence of oxygen, leading to a release of carbon dioxide, water, and nitrogen. The gases are then passed over particular columns (such as an aqueous potassium hydroxide solution), which absorb the carbon dioxide and water. A column containing a detector of thermal conductivity at the end is then used to separate the nitrogen from all residual carbon dioxide and the water, and the content of residual nitrogen is quantified.
as §5, §6

As for “miPEP167c: peptide MKGVHHFFHHKYVGLRG coded by an open reading frame of the primary transcript of miR167c in Glycine max (Glycine max)”, the “number of nodules (per gram of fresh root weight)” value with Glycine max [1] is “significantly increases”.
“miPEP172c: peptide MWVLCLFCWPTYTHGS coded by an open reading frame of the primary transcript of miR172c in Glycine max (SEQ ID NO: 2; Glycine max)”: the “relative expression of the gene Hb2” value with Hb2 is on record as “increase”. The fresh pod weight result in the experiment with Glycine max [2] is recorded as “significantly increases”. In addition, the “relative expression of the gene ENOD40-1” value in the experiment with ENOD40-1 was “increase”. Also, the “relative expression of the gene NIN” value in the experiment on NIN is reported as “increase”. For the same substance, in the experiment on NNC1, the “relative expression of the gene NNC1” value is “reducing”. Further, the “fixation of nitrogen (NifH expression by RT-qPCR and nifD::LacZ fusions)” value in the experiment on nifD is listed as “effective fixation of nitrogen”. For the same substance, the “relative expression of miR172c” value in the experiment with miR172c is on record as “increases”. The “relative expression of the gene NifH” value with nifH was “increase”. For the same substance, in the experiment on Glycine max [3], the “development of the roots (fresh root weight)” value is “No effect”. The “number of nodules (per gram of fresh root weight)” value with Glycine max [1] is on record as “significantly increases”. In addition, in the experiment on NSP1, the “relative expression of the gene NSP1” value is “increase”. The “nitrogen content of the aerial parts” value with Glycine max [4] is recorded as “significantly increases”.
